Several values for one entry are separate records, joined by “and”; a condition that tells them apart may be missing. Equal values may be shown once.
Experiment: Acute biodistribution of ^64Cu-labeled tetrazine radioligands in healthy mice
Type: in vivo, athymic nude mice
Conditions: 1 h p.i.
Description: (§1) Mice were administered ^64Cu-Tz-NOTA (25-30 μCi in 200 μL 0.9% sterile saline) via intravenous tail vein injection. Animals (n=4 per group) were euthanized by CO2(g) asphyxiation at 1, 4, and 24 h after injection. After asphyxiation, tissues were removed, rinsed in water, dried in air for 5 min, weighed, and counted in a gamma counter calibrated for ^64Cu. Counts were converted into activity using a calibration curve generated from known standards. Count data were background- and decay-corrected to the time of injection, and the percent injected dose per gram (% ID/g) for each tissue sample was calculated by normalization to the total activity injected. Contents within the stomach, small intestine, and large intestine were not removed for the measurements.
as §1, with “^64Cu-Tz-PEG7-NOTA” for “^64Cu-Tz-NOTA”
as §1, with “^64Cu-Tz-SarAr” for “^64Cu-Tz-NOTA”
as §1, with “Healthy female athymic nude mice (n=4 per radioligand) were” for “Mice were”, “administered ^64Cu-Tz-PEG7-NOTA or ^64Cu-Tz-SarAr” for “administered ^64Cu-Tz-NOTA”, “vein injection (t=0).” for “vein injection.”, “4, 12,” for “4,”, “injected.” for “injected. Contents within the stomach, small intestine, and large intestine were not removed for the measurements.”

SMILES	Blood activity concentration	Bone activity concentration	Heart activity concentration	Kidney activity concentration	Liver activity concentration	Lung activity concentration	Muscle activity concentration	Spleen activity concentration
O=C([O-])CN1CCN(CC(=O)[O-])CC(Cc2ccc(NC(=O)CCCC(=O)NCc3ccc(-c4nncnn4)cc3)cc2)N(CC(=O)[O-])CC1.[64Cu+2] (stereo not drawn) [^64Cu-Tz-NOTA]	0.23 ± 0.01 % ID/g	0.10 ± 0.03 % ID/g	0.10 ± 0.02 % ID/g	0.53 ± 0.09 % ID/g	1.45 ± 0.39 % ID/g	0.38 ± 0.06 % ID/g	0.04 ± 0.02 % ID/g	0.15 ± 0.05 % ID/g
O=C(O)CN1CCN(CC(=O)O)CC(Cc2ccc(NC(=S)NCCOCCOCCOCCOCCOCCOCCOCCNC(=O)CCCC(=O)NCc3ccc(-c4nncnn4)cc3)cc2)N(CC(=O)O)CC1.[64Cu] (stereo not drawn) [^64Cu-Tz-PEG7-NOTA]	0.38 ± 0.14 % ID/g	0.09 ± 0.06 % ID/g	0.17 ± 0.02 % ID/g	1.5±0.2 % ID/g and 1.51 ± 0.24 % ID/g	0.77 ± 0.11 % ID/g	0.49 ± 0.11 % ID/g	0.05 ± 0.01 % ID/g	0.19 ± 0.01 % ID/g
NC12CNCCNCC(NCc3ccc(CNC(=O)CCCC(=O)NCc4ccc(-c5nncnn5)cc4)cc3)(CNCCNC1)CNCCNC2.[64Cu+2] [^64Cu-Tz-SarAr]	0.42 ± 0.11 % ID/g	0.12 ± 0.03 % ID/g	0.22 ± 0.06 % ID/g	2.3±0.4 % ID/g and 2.34 ± 0.35 % ID/g	0.72 ± 0.03 % ID/g	0.32 ± 0.06 % ID/g	0.05 ± 0.03 % ID/g	0.38 ± 0.06 % ID/g

Same assay, conditions: 1 h p.i., contents not removed

SMILES	Large Intestine activity concentration	Small Intestine activity concentration	Stomach activity concentration
O=C([O-])CN1CCN(CC(=O)[O-])CC(Cc2ccc(NC(=O)CCCC(=O)NCc3ccc(-c4nncnn4)cc3)cc2)N(CC(=O)[O-])CC1.[64Cu+2] (stereo not drawn) [^64Cu-Tz-NOTA]	11.58 ± 2.19 % ID/g	3.14 ± 1.47 % ID/g	0.12 ± 0.04 % ID/g
O=C(O)CN1CCN(CC(=O)O)CC(Cc2ccc(NC(=S)NCCOCCOCCOCCOCCOCCOCCOCCNC(=O)CCCC(=O)NCc3ccc(-c4nncnn4)cc3)cc2)N(CC(=O)O)CC1.[64Cu] (stereo not drawn) [^64Cu-Tz-PEG7-NOTA]	6.35 ± 0.69 % ID/g	0.5 ± 0.26 % ID/g	0.18 ± 0.06 % ID/g
NC12CNCCNCC(NCc3ccc(CNC(=O)CCCC(=O)NCc4ccc(-c5nncnn5)cc4)cc3)(CNCCNC1)CNCCNC2.[64Cu+2] [^64Cu-Tz-SarAr]	0.07±0.01 % ID/g	0.29 ± 0.21 % ID/g	0.24 ± 0.14 % ID/g

Same assay, conditions: 4 h p.i.

SMILES	Blood activity concentration	Bone activity concentration	Heart activity concentration	Kidney activity concentration	Liver activity concentration	Lung activity concentration	Muscle activity concentration	Spleen activity concentration
O=C([O-])CN1CCN(CC(=O)[O-])CC(Cc2ccc(NC(=O)CCCC(=O)NCc3ccc(-c4nncnn4)cc3)cc2)N(CC(=O)[O-])CC1.[64Cu+2] (stereo not drawn) [^64Cu-Tz-NOTA]	0.13 ± 0.01 % ID/g	0.07 ± 0.04 % ID/g	0.11 ± 0.02 % ID/g	0.33 ± 0.07 % ID/g	0.42 ± 0.13 % ID/g	0.27 ± 0.08 % ID/g	0.03 ± 0.02 % ID/g	0.09 ± 0.02 % ID/g
O=C(O)CN1CCN(CC(=O)O)CC(Cc2ccc(NC(=S)NCCOCCOCCOCCOCCOCCOCCOCCNC(=O)CCCC(=O)NCc3ccc(-c4nncnn4)cc3)cc2)N(CC(=O)O)CC1.[64Cu] (stereo not drawn) [^64Cu-Tz-PEG7-NOTA]	0.26 ± 0.14 % ID/g	0.07 ± 0.02 % ID/g	0.18 ± 0.03 % ID/g	1.2±0.4 % ID/g and 1.23 ± 0.39 % ID/g	0.63 ± 0.2 % ID/g	0.35 ± 0.13 % ID/g	0.03 ± 0.02 % ID/g	0.14 ± 0.02 % ID/g
NC12CNCCNCC(NCc3ccc(CNC(=O)CCCC(=O)NCc4ccc(-c5nncnn5)cc4)cc3)(CNCCNC1)CNCCNC2.[64Cu+2] [^64Cu-Tz-SarAr]	0.15 ± 0.01 % ID/g	0.09 ± 0.01 % ID/g	0.12 ± 0.02 % ID/g	1.57 ± 0.19 % ID/g	0.42 ± 0.24 % ID/g	0.31 ± 0.09 % ID/g	0.04 ± 0.01 % ID/g	0.2 ± 0.05 % ID/g

Same assay, conditions: 4 h p.i., contents not removed

SMILES	Large Intestine activity concentration	Small Intestine activity concentration	Stomach activity concentration
O=C([O-])CN1CCN(CC(=O)[O-])CC(Cc2ccc(NC(=O)CCCC(=O)NCc3ccc(-c4nncnn4)cc3)cc2)N(CC(=O)[O-])CC1.[64Cu+2] (stereo not drawn) [^64Cu-Tz-NOTA]	10.0±1.3 % ID/g and 10.03 ± 1.33 % ID/g	0.17 ± 0.07 % ID/g	0.05 ± 0.03 % ID/g
O=C(O)CN1CCN(CC(=O)O)CC(Cc2ccc(NC(=S)NCCOCCOCCOCCOCCOCCOCCOCCNC(=O)CCCC(=O)NCc3ccc(-c4nncnn4)cc3)cc2)N(CC(=O)O)CC1.[64Cu] (stereo not drawn) [^64Cu-Tz-PEG7-NOTA]	4.9±0.7 % ID/g and 4.91 ± 0.71 % ID/g	0.3 ± 0.14 % ID/g	0.36 ± 0.25 % ID/g
NC12CNCCNCC(NCc3ccc(CNC(=O)CCCC(=O)NCc4ccc(-c5nncnn5)cc4)cc3)(CNCCNC1)CNCCNC2.[64Cu+2] [^64Cu-Tz-SarAr]	0.08 ± 0.03 % ID/g	0.16 ± 0.03 % ID/g	0.2 ± 0.1 % ID/g

Same assay, conditions: 24 h p.i.

SMILES	Blood activity concentration	Bone activity concentration	Heart activity concentration	Kidney activity concentration	Liver activity concentration	Lung activity concentration	Muscle activity concentration	Spleen activity concentration
O=C([O-])CN1CCN(CC(=O)[O-])CC(Cc2ccc(NC(=O)CCCC(=O)NCc3ccc(-c4nncnn4)cc3)cc2)N(CC(=O)[O-])CC1.[64Cu+2] (stereo not drawn) [^64Cu-Tz-NOTA]	0.07 ± 0.01 % ID/g	0.03 ± 0.01 % ID/g	0.09 ± 0.01 % ID/g	0.22 ± 0.07 % ID/g	0.21 ± 0.06 % ID/g	0.21 ± 0.02 % ID/g	0.03 ± 0.03 % ID/g	0.08 ± 0.02 % ID/g
O=C(O)CN1CCN(CC(=O)O)CC(Cc2ccc(NC(=S)NCCOCCOCCOCCOCCOCCOCCOCCNC(=O)CCCC(=O)NCc3ccc(-c4nncnn4)cc3)cc2)N(CC(=O)O)CC1.[64Cu] (stereo not drawn) [^64Cu-Tz-PEG7-NOTA]	0.08 ± 0.01 % ID/g	0.06 ± 0.01 % ID/g	0.09 ± 0.01 % ID/g	0.86 ± 0.11 % ID/g	0.32 ± 0.11 % ID/g	0.17 ± 0.03 % ID/g	0.02 ± 0.01 % ID/g	0.12 ± 0.01 % ID/g
NC12CNCCNCC(NCc3ccc(CNC(=O)CCCC(=O)NCc4ccc(-c5nncnn5)cc4)cc3)(CNCCNC1)CNCCNC2.[64Cu+2] [^64Cu-Tz-SarAr]	0.06 ± 0.01 % ID/g	0.08 ± 0.02 % ID/g	0.08 ± 0.02 % ID/g	1.26 ± 0.41 % ID/g	0.28 ± 0.07 % ID/g	0.24 ± 0.06 % ID/g	0.03 ± 0.01 % ID/g	0.21 ± 0.04 % ID/g

Same assay, conditions: 24 h p.i., contents not removed

SMILES	Large Intestine activity concentration	Small Intestine activity concentration	Stomach activity concentration
O=C([O-])CN1CCN(CC(=O)[O-])CC(Cc2ccc(NC(=O)CCCC(=O)NCc3ccc(-c4nncnn4)cc3)cc2)N(CC(=O)[O-])CC1.[64Cu+2] (stereo not drawn) [^64Cu-Tz-NOTA]	1.4±0.7 % ID/g and 1.37 ± 0.65 % ID/g	0.10 ± 0.02 % ID/g	0.18 ± 0.11 % ID/g
O=C(O)CN1CCN(CC(=O)O)CC(Cc2ccc(NC(=S)NCCOCCOCCOCCOCCOCCOCCOCCNC(=O)CCCC(=O)NCc3ccc(-c4nncnn4)cc3)cc2)N(CC(=O)O)CC1.[64Cu] (stereo not drawn) [^64Cu-Tz-PEG7-NOTA]	0.40 ± 0.15 % ID/g	0.10 ± 0.01 % ID/g	0.09 ± 0.02 % ID/g
NC12CNCCNCC(NCc3ccc(CNC(=O)CCCC(=O)NCc4ccc(-c5nncnn5)cc4)cc3)(CNCCNC1)CNCCNC2.[64Cu+2] [^64Cu-Tz-SarAr]	0.07 ± 0.01 % ID/g	0.07 ± 0.01 % ID/g	0.05 ± 0.01 % ID/g

Experiment: Partition coefficient (log D), 1-octanol / PBS
Type: physicochemical
Conditions: 1-octanol / PBS (pH 7.4)
Description: Once the precursors were made, the tetrazine constructs were then radiolabeled via incubation with [^64Cu]—CuCl2 for 10 minutes at room temperature in 200 mM NH4OAc, pH 5.0 and purified via reverse-phase C18 HPLC (tR=8.7 min for ^64Cu-Tz-SarAr and 9.7 min for ^64Cu-Tz-PEG7NOTA; FIGS. 6-9). In both cases, the identity of the radiolabeled product was confirmed via co-injection of unlabeled ^natCu-Tz-SarAr and ^natCu-Tz-PEG7-NOTA standards. Ultimately, ^64Cu-Tz-PEG7NOTA was prepared in greater than 99% radionuclidic purity, 78±6% decay-corrected isolated yield, and a specific activity of 323±37 mCi/μmol (n=6). Similarly, ^64Cu-Tz-SarAr was synthesized in greater than 99% radionuclidic purity, 79±7% decay-corrected isolated yield, and a specific activity of 310±36 mCi/μmol (n=6). The ^64Cu-Tz-NOTA radioligand was synthesized, radiolabeled, and purified as previously reported by Zeflis et al. J. Nucl. Med. 2013, 54, 1389-1396, which is hereby incorporated by reference in its entirety. In order to probe the influence of the structural changes on solubility, the partition coefficients of the various radioligands were determined using PBS (pH 7.4) and 1-octanol (Table 1). […] For example, the replacement of NOTA with SarAr rendered ^64Cu-Tz-SarAr (log D=−2.08±0.06) more hydrophobic than ^64Cu-Tz-NOTA (log D=−2.54±0.1).
^64Cu-Tz-PEG7-NOTA, ^64Cu-Tz-NOTA, or ^64Cu-Tz-SarAr (1 μCi) was added to a mixture of 3 mL PBS (pH 7.4) and 3 mL 1-octanol. The resulting mixture was then vortexed thoroughly for 10 minutes and subsequently centrifuged at 1,000 rpm for 10 min. 1 mL of each layer (PBS and 1-octanol) was then collected, and the amount of radioactivity in each sample was counted on a gamma counter calibrated for ^64Cu. The partition coefficient (log D) was calculated using the formula: Log D=log10[(countsoctanol)/(countsPBS] All experiments were performed in triplicate. Reaction of ^64Cu-Tz Radioligands with huA33-TCO

SMILES	Log D
O=C([O-])CN1CCN(CC(=O)[O-])CC(Cc2ccc(NC(=O)CCCC(=O)NCc3ccc(-c4nncnn4)cc3)cc2)N(CC(=O)[O-])CC1.[64Cu+2] (stereo not drawn) [^64Cu-Tz-NOTA]	−2.54±0.1 and −2.54 +/− 0.10
O=C(O)CN1CCN(CC(=O)O)CC(Cc2ccc(NC(=S)NCCOCCOCCOCCOCCOCCOCCOCCNC(=O)CCCC(=O)NCc3ccc(-c4nncnn4)cc3)cc2)N(CC(=O)O)CC1.[64Cu] (stereo not drawn) [^64Cu-Tz-PEG7-NOTA]	−2.44±0.08 and −2.44 +/− 0.08
NC12CNCCNCC(NCc3ccc(CNC(=O)CCCC(=O)NCc4ccc(-c5nncnn5)cc4)cc3)(CNCCNC1)CNCCNC2.[64Cu+2] [^64Cu-Tz-SarAr]	−2.08 +/− 0.06

Source: patent US11135320B2, “Radioligands for pretargeted pet imaging and methods of their therapeutic use” (priority 2015, dated 2021)
